Source: patent US11858899B2, “Complexation of pirfenidone with polyphenolic calixarene or resorcin[4]arenes” (University of Cincinnati, priority 2021, dated 2024)
≈ marks a conversion by molar mass, not a printed value. Entries after “also recorded” stand apart in the source; their conditions may differ. Read-outs that look alike come from different tables or passages of the source.

Columns and labels:
[1] = system: Staphylococcus aureus (G+ve) bacteria; assay: Zone of inhibition (ZI) paper disc test, antibacterial/antioxidant activity; format: cell-based; conditions: for Inference: radical scavenger: from ZI change with H2O2 / pyrogallol; for Zone of inhibition (ZI), 5 uL of (Compound + H2O2): premixed 0.01M compound + 0.88M H2O2, 1:1, decrease vs pure H2O2 = antioxidant; for Zone of inhibition (ZI), 5 uL of (Compound + Pyrogallol): premixed 0.01M compound + 1M Pyrogallol, 1:1, decrease vs pure pyrogallol = antioxidant; for Zone of inhibition (ZI), 5 uL of 0.01M Compound: pure compound on paper disc, zone width around disk; for Inference: Anti-bacterial potential: from ZI of pure compound
Description: (§1) Tests were conducted to check the antioxidant/antibacterial activity of macrocycle and host-guest compounds. 5 uL of 0.01M compound, 5 uL (premixed, 0.01M compound+1M Pyrogallol, 1:1) and 5 uL (premixed, 0.01M compound+0.88M H2O2, 1:1) were added on paper discs placed on plates. 5 uL of 1M pyrogallol, 5 uL of 0.88M H2O2 were used as control (oxidants). In the following tables, Decrease/Increase means wrt pure H2O2 or pyrogallol. […] Zone=mm of zone width around disk.

[2] = system: Pseudomonas aeruginosa (G-ve) bacteria; assay: as above; format: cell-based; conditions: for Inference: radical scavenger: from ZI change with H2O2 / pyrogallol; for Zone of inhibition (ZI), 5 uL of (Compound + H2O2): premixed 0.01M compound + 0.88M H2O2, 1:1; for Zone of inhibition (ZI), 5 uL of (Compound + Pyrogallol): premixed 0.01M compound + 1M Pyrogallol, 1:1; for Zone of inhibition (ZI), 5 uL of 0.01M Compound: pure compound on paper disc;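 as to Inference: radical scavenger: smaller zone than oxidant alone means antioxidant and larger means oxidant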
Description: as §1, with “disk. Decrease/Increase wrt pure H2O2 or pyrogallol.” for “disk.”

E. Coli (G-ve) bacteria = assay: as above; format: cell-based; conditions: for Inference: radical scavenger: from ZI change with H2O2 / pyrogallol; for Zone of inhibition (ZI), 5 uL of (Compound + H2O2): premixed 0.01M compound + 0.88M H2O2, 1:1; for Zone of inhibition (ZI), 5 uL of (Compound + Pyrogallol): premixed 0.01M compound + 1M Pyrogallol, 1:1; for Zone of inhibition (ZI), 5 uL of 0.01M Compound: pure compound on paper disc;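 as to Inference: radical scavenger: smaller zone than oxidant alone means antioxidant and larger means oxidant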
Description: as §1, with “disk. Decrease/Increase wrt pure H2O2 or pyrogallol.” for “disk.”

[3] = system: klebsiella pneumoniae (G -ve) bacteria; assay: as above; format: cell-based; conditions: for Inference: radical scavenger: from ZI change with H2O2 / pyrogallol; for Zone of inhibition (ZI), 5 uL of (Compound + H2O2): premixed 0.01M compound + 0.88M H2O2, 1:1; for Zone of inhibition (ZI), 5 uL of (Compound + Pyrogallol): premixed 0.01M compound + 1M Pyrogallol, 1:1; for Zone of inhibition (ZI), 5 uL of 0.01M Compound: pure compound on paper disc;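 as to Inference: radical scavenger: smaller zone than oxidant alone means antioxidant and larger means oxidant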
Description: as §1, with “disk. Decrease/Increase wrt pure H2O2 or pyrogallol.” for “disk.”

C. acnes = assay: Broth serial dilution MIC / growth inhibition in 96-well plate; format: cell-based, Cutibacterium acnes; conditions: for MIC: test range 128-2 ug/mL, LB medium; for GI (growth inhibition): at the MIC concentration
Description: 3 mg/ml stock solutions of RsC1, PFD and RsC1-PFD were prepared in DMSO (bcoz host soluble in DMSO solution). From the stock, a working solution 4× (highest conc. for each compound in plate) was prepared in LB media. 50 uL of LB media were first added in each well (96 well plate). Then a 4× solution of each respective compound was added to the first row (A4-A12) except A1-A3 (Positive control/bacterial innoculum). Then the 4× was serially diluted up to well G for all 3 compounds. (A-G). Then, a 50 uL aliquot of the 100-fold diluted bacterial inoculum was added in each test well. Individual test concentrations (in triplicate wells in a 96-well plate) for the given compounds were achieved by serial dilution by using LB medium. Total volume in each well was 100 uL. The final-test concentration range for the individual test compounds for C. acne were as follows: Macrocycle, PFD and RsC1-PFD complex (128-2 ug/mL). The results are shown in FIG. 10, which is a bar plot of absorbance (at 600 nm) at various test compound concentrations, showing the percent inhibition of pathogen growth in the presence of decreasing concentrations of the test compounds using a twofold dilution series.
(§2) 3 mg/ml stock solutions of PFD, RsC4-PFD (1:1 complex), and RsC4 were prepared in DMSO (bcoz host soluble in DMSO solution). From the stock, a working solution 4× (highest conc. for each compound in plate) was prepared in LB media. 50 uL of LB media was first added in each well (96 well plate). Then a 4× solution of the respective compound was added to the first row (A4-A12) except A1-A3 (Positive control/bacterial innoculum). Then, the 4× was serially diluted up to well G for all 3 compounds. (A-G). Then, a 50 uL aliquot of the 100-fold diluted bacterial inoculum was added in each test well. Individual test concentrations (in triplicate wells in a 96-well plate) for the given compounds were achieved by serial dilution by using LB medium. Total volume in each well is 100 uL. The final-test concentration range for the individual test compounds for C. acne as follows: Macrocycle, PFD and RsC4-PFD complex (128-2 ug/mL).
as §2, with “PFD, RsC1, RsC1-PFD (1:1 complex), RsC4, and” for “PFD,”, “complex)” for “complex), and RsC4”, “acnes, S. aureus and P. aeruginosa are” for “acne”, “PFD, RsC1, RsC4, RsC1-PFD complex” for “Macrocycle, PFD”

S. aureus (MU50) = assay: as above; format: cell-based, Staphylococcus aureus; conditions: for MIC: test range 128-2 ug/mL, LB medium; for GI (growth inhibition): at the MIC concentration
Description: as §2, with “PFD, RsC1, RsC1-PFD (1:1 complex), RsC4, and” for “PFD,”, “complex)” for “complex), and RsC4”, “acnes, S. aureus and P. aeruginosa are” for “acne”, “PFD, RsC1, RsC4, RsC1-PFD complex” for “Macrocycle, PFD”

P. aeruginosa (BAMF) = assay: as above; format: cell-based, Pseudomonas aeruginosa; conditions: for MIC: test range 128-2 ug/mL, LB medium; for GI (growth inhibition): at the MIC concentration
Description: as §2, with “PFD, RsC1, RsC1-PFD (1:1 complex), RsC4, and” for “PFD,”, “complex)” for “complex), and RsC4”, “acnes, S. aureus and P. aeruginosa are” for “acne”, “PFD, RsC1, RsC4, RsC1-PFD complex” for “Macrocycle, PFD”

| SMILES | Inference: radical scavenger [1] | Zone of inhibition (ZI), 5 uL of (Compound + H2O2) [1] | Zone of inhibition (ZI), 5 uL of (Compound + Pyrogallol) [1] | Zone of inhibition (ZI), 5 uL of 0.01M Compound [1] | Inference: radical scavenger [2] | Zone of inhibition (ZI), 5 uL of (Compound + H2O2) [2] | Zone of inhibition (ZI), 5 uL of (Compound + Pyrogallol) [2] | Zone of inhibition (ZI), 5 uL of 0.01M Compound [2] | Inference: radical scavenger (E. Coli (G-ve) bacteria) | Zone of inhibition (ZI), 5 uL of (Compound + H2O2) (E. Coli (G-ve) bacteria) | Zone of inhibition (ZI), 5 uL of (Compound + Pyrogallol) (E. Coli (G-ve) bacteria) | Zone of inhibition (ZI), 5 uL of 0.01M Compound (E. Coli (G-ve) bacteria) | Inference: radical scavenger [3] | Zone of inhibition (ZI), 5 uL of (Compound + H2O2) [3] | Zone of inhibition (ZI), 5 uL of (Compound + Pyrogallol) [3] | Zone of inhibition (ZI), 5 uL of 0.01M Compound [3] | GI (growth inhibition) (C. acnes) | GI (growth inhibition) (S. aureus (MU50)) | GI (growth inhibition) (P. aeruginosa (BAMF)) | further results |
| --- | --- | --- | --- | --- | --- | --- | --- | --- | --- | --- | --- | --- | --- | --- | --- | --- | --- | --- | --- | --- |
| OO [H2O2] |  |  |  |  |  |  |  |  |  |  |  |  |  |  |  |  |  |  |  | Zone of inhibition (ZI), 5 uL of 0.88M H2O2 ([1]; oxidant control alone): (4.6 mm); Zone of inhibition (ZI), 5 uL of 0.88M H2O2 ([2]; oxidant control alone): ZI (2.7 mm; Zone of inhibition (ZI), 5 uL of 0.88M H2O2 (E. Coli (G-ve) bacteria; oxidant control alone): ZI (2.9 mm; Zone of inhibition (ZI), 5 uL of 0.88M H2O2 ([3]; oxidant control alone): ZI (3 mm |
| CCCCCCC1c2cc(c(O)c(O)c2O)C(CCCCCC)c2cc(c(O)c(O)c2O)C(CCCCCC)c2cc(c(O)c(O)c2O)C(CCCCCC)c2cc1c(O)c(O)c2O (stereo not shown) [P6] | Low radical | (3.8 mm) | (2 mm) | No ZI | Low radical | (2.2 mm) | pyrogallol (1.2 mm | No ZI | Moderate | (1.7 mm) | No ZI | No ZI | Moderate | (2 mm) | No ZI | No ZI |  |  |  |  |
| Cc1ccc(=O)n(-c2ccccc2)c1 [PFD, 5-methyl-1-phenylpyridin-2-one] | low to high free radical scavenging effect; also recorded: Moderate | slightly (3.8 mm | No ZI | No ZI | no free radical scavenging effect | (2.7 mm) | pyrogallol (1.2 mm | No ZI | Moderate OH | (1.7 mm) | No ZI | No ZI | Moderate | (2.2 mm) | No ZI | No ZI | 98% | 45% | 35% | MIC (C. acnes; Cutibacterium acnes, read-out: MIC): 128 µg/mL (≈ 691 µM); MIC (S. aureus (MU50); Staphylococcus aureus, read-out: MIC): 128 µg/mL (≈ 691 µM); MIC (P. aeruginosa (BAMF); Pseudomonas aeruginosa, read-out: MIC): 128 µg/mL (≈ 691 µM) |
| CC1c2cc(c(O)cc2O)C(C)c2cc(c(O)cc2O)C(C)c2cc(c(O)cc2O)C(C)c2cc1c(O)cc2O (stereo not shown) [RsC1, C-methylresorcin[4]arene] | potential/Low | (4.2 mm) | (2.5 mm) | (1.2 mm) |  | (2.1 mm) | pyrogallol (1.2 mm | No ZI | Moderate | (1.9 mm) | No ZI | No ZI | Moderate | (2.4 mm) | No ZI | No ZI | 96% | 98% | 47% | percent inhibition of pathogen growth (C. acnes; at 16 μg/mL, absorbance at 600 nm (FIG. 10)): 35%; MIC (C. acnes): 64 µg/mL (≈ 118 µM); MIC (S. aureus (MU50)): 16 µg/mL (≈ 29.4 µM); Inference: Anti-bacterial potential ([1]; listed as R1): slight anti-bacterial activity; MIC (P. aeruginosa (BAMF)): 64 µg/mL (≈ 118 µM); Inference: radical scavenger ([2]; listed as R1): low antioxidant activity; also recorded: Low radical |
| CCCCC1c2cc(c(O)cc2O)C(CCCC)c2cc(c(O)cc2O)C(CCCC)c2cc(c(O)cc2O)C(CCCC)c2cc1c(O)cc2O (stereo not shown) [RsC4, C-butylresorcin[4]arene] | Low radical | (3.6 mm) | (2.3 mm) | No ZI | Low radical | (2.1 mm) | (1.4 mm) | No ZI | Moderate | (1.7 mm) | No ZI | No ZI | High OH | No ZI | No ZI | No ZI | 98% | 52% | 56% | MIC (C. acnes): 128 µg/mL (≈ 180 µM); MIC (S. aureus (MU50)): 128 µg/mL (≈ 180 µM); Inference: Anti-bacterial potential [1]: none; MIC (P. aeruginosa (BAMF)): 64 µg/mL (≈ 89.8 µM) |
| OCCN1CCN(Cc2ccc(O)c3ncccc23)CC1 [VK] | Low radical | (3.7 mm) | (2.3 mm) | No ZI | Moderate | (2.2 mm) | (0.7 mm) | No ZI | High radical | No ZI | No ZI | No ZI | Moderate | (2.3 mm) | No ZI | No ZI |  |  |  |  |
| Oc1cccc(O)c1O [pyrogallol, Pyrogallol] |  |  |  |  |  |  |  |  |  |  |  |  |  |  |  |  |  |  |  | Zone of inhibition (ZI), 5 uL of 1M pyrogallol ([1]; oxidant control alone): (3.3 mm); Zone of inhibition (ZI), 5 uL of 1M pyrogallol ([2]; oxidant control alone): ZI (1.1 mm; Zone of inhibition (ZI), 5 uL of 1M pyrogallol (E. Coli (G-ve) bacteria; oxidant control alone): ZI (0.9 mm; Zone of inhibition (ZI), 5 uL of 1M pyrogallol ([3]; oxidant control alone): ZI (0.9 mm |
